Laboratory results published in US20260200926A1, “TREM2 MODULATORS” (Muna Therapeutics ApS, priority 2022, published 2026).
Like-named read-outs stand apart in the source and are kept apart here.

Molecular target: T1, Human TREM2 (Homo sapiens, UniProt Q9NZC2)
T1 construct: expressed in transfected cells
Experiment: Human TREM2 activity: cellular phosphorylation of Syk (AlphaLISA SureFire Ultra p-SYK) in HEK293/DAP12+TREM2 stable cell line
Type: cell-based
Conditions: for Emax: HEK293, read-out: Emax; for EC50: phospho-Syk AlphaLISA signal, HEK293/DAP12+TREM2 cells, concentration giving 50% of maximal response, read-out: EC50
Procedure, shortened: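 The read-out was p-Syk (Tyr525/526), measured by AlphaLISA in lysates of a stable HEK293/DAP12+TREM2 clone. Cells (10,000/well, plated the day before) received compound for 30 min at 37 °C. Dosing used 8 points in quadruplicate, top 100 μM with 1:6 dilution, 0.5% final DMSO.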

[1] = maximal response relative to reference agonist example 1B (remaining examples)

T1 sequence (Q9NZC2 19-230): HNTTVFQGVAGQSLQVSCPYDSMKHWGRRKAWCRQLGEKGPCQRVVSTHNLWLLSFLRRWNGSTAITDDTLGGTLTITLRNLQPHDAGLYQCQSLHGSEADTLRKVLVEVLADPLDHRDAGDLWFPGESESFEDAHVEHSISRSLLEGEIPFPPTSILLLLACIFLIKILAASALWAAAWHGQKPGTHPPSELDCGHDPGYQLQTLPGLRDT
T1 sequence (O43914 22-113 partner): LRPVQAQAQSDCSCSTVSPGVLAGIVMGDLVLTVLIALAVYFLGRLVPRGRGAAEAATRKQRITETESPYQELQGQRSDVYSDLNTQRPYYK

Structure (SMILES) | Emax [1] [%] | EC50 [µM] | Emax (maximal response relative to reference agonist human TREM2 MAB1828 (examples 1, 1A and 1B)) [%]
Cn1c(C(F)(F)F)nc2c(-c3cc(F)c(F)cc3F)nc([C@@H]3CCO[C@H](c4cnn(C5CC5)c4)C3)nc2c1=O (single isomer, unassigned) [Example 186A] | 75 to 110 | 0.001 to 0.01 | 
Cn1c(C(F)(F)F)nc2c(-c3cc(F)c(F)cc3F)nc([C@H]3CCO[C@@H](c4cnn(C5CC5)c4)C3)nc2c1=O (single isomer, unassigned) [Example 186B] | < 75 | 0.1 to 1 | 
Cc1cc([C@@H]2CN(c3cc4c(=O)n(C)c(C(F)(F)F)nc4c(-c4ccc(F)cc4F)n3)C[C@H](C)O2)ccn1 (single isomer, unassigned) [Example 189A] | 75 to 110 | 0.01 to 0.1 | 
Cc1cc([C@H]2CN(c3cc4c(=O)n(C)c(C(F)(F)F)nc4c(-c4ccc(F)cc4F)n3)C[C@@H](C)O2)ccn1 (single isomer, unassigned) [Example 189B] | 75 to 110 | 0.1 to 1 | 
Cc1nc2c(-c3ccc(F)cc3F)nc(N3C[C@@H](c4cnn(C5CC5)c4)O[C@@H](C)C3)cc2c(=O)n1C (single isomer, unassigned) [Example 190A] | 75 to 110 | 0.01 to 0.1 | 
Cc1nc2c(-c3ccc(F)cc3F)nc(N3C[C@@H](C)O[C@@H](c4cnn(C5CC5)c4)C3)cc2c(=O)n1C (single isomer, unassigned) [Example 190B] | < 75 | 0.1 to 1 | 
Cc1cc([C@@H]2CN(c3nc(-c4ccc(F)cc4F)c4nc(C(F)(F)F)n(C)c(=O)c4n3)C[C@H](C)O2)ccn1 (single isomer, unassigned) [Example 191A] | < 75 | < 0.001 | 
Cc1cc([C@H]2CN(c3nc(-c4ccc(F)cc4F)c4nc(C(F)(F)F)n(C)c(=O)c4n3)C[C@@H](C)O2)ccn1 (single isomer, unassigned) [Example 191B] | 75 to 110 | 0.001 to 0.01 | 
Cc1cc([C@@H]2CN(c3cc4c(=O)n(C)c(C)nc4c(-c4ccc(C(F)F)nc4)n3)C[C@H](C)O2)ccn1 (single isomer, unassigned) [Example 192A] | < 75 | 0.1 to 1 | 
Cc1cc([C@H]2CN(c3cc4c(=O)n(C)c(C)nc4c(-c4ccc(C(F)F)nc4)n3)C[C@@H](C)O2)ccn1 (single isomer, unassigned) [Example 192B] | 75 to 110 | 0.001 to 0.01 | 
C[C@H]1CN(c2cc3c(=O)n(C)c(C(F)(F)F)nc3c(-c3ccc(F)cc3F)n2)C[C@@H](c2cnn(C3CC3)c2)O1 (single isomer, unassigned) [Example 193A] | 75 to 110 | 0.001 to 0.01 | 
C[C@@H]1CN(c2cc3c(=O)n(C)c(C(F)(F)F)nc3c(-c3ccc(F)cc3F)n2)C[C@H](c2cnn(C3CC3)c2)O1 (single isomer, unassigned) [Example 193B] | < 75 | 0.01 to 0.1 | 
Cc1nc2c(-c3ccc(C(F)F)nc3)nc(N3C[C@@H](c4cnn(C5CC5)c4)O[C@@H](C)C3)cc2c(=O)n1C (single isomer, unassigned) [Example 194A] | 75 to 110 | 0.01 to 0.1 | 
Cc1nc2c(-c3ccc(C(F)F)nc3)nc(N3C[C@@H](C)O[C@@H](c4cnn(C5CC5)c4)C3)cc2c(=O)n1C (single isomer, unassigned) [Example 194B] | < 75 | 0.1 to 1 | 
Cc1nc2c(-c3ccc(C(F)(F)F)cc3F)nc(N3C[C@@H](c4cnn(C5CC5)c4)O[C@@H](C)C3)nc2c(=O)n1C (single isomer, unassigned) [Example 195A] | < 75 | 0.001 to 0.01 | 
Cc1nc2c(-c3ccc(C(F)(F)F)cc3F)nc(N3C[C@@H](C)O[C@@H](c4cnn(C5CC5)c4)C3)nc2c(=O)n1C (single isomer, unassigned) [Example 195B] | 75 to 110 | < 0.001 | 
Cn1c(C(F)(F)F)nc2c(-c3ccc(F)cc3F)nc([C@@H]3CCO[C@H](c4cnn(C5CC5)c4)C3)nc2c1=O (single isomer, unassigned) [Example 196A] | 75 to 110 | 0.001 to 0.01 | 
Cn1c(C(F)(F)F)nc2c(-c3ccc(F)cc3F)nc([C@H]3CCO[C@@H](c4cnn(C5CC5)c4)C3)nc2c1=O (single isomer, unassigned) [Example 196B] | < 75 | 0.01 to 0.1 | 
Cn1c(C(F)(F)F)nc2c(-c3ccc(F)cc3F)nc([C@@H]3CCO[C@H](c4cnn(C5CC5)c4)C3)cc2c1=O (single isomer, unassigned) [Example 197A] | < 75 | 0.01 to 0.1 | 

Structure (SMILES) | Emax [1] [%] | EC50 [µM] | Emax (maximal response relative to reference agonist human TREM2 MAB1828 (examples 1, 1A and 1B)) [%]
Cn1c(C(F)(F)F)nc2c(-c3ccc(F)cc3F)nc([C@H]3CCO[C@@H](c4cnn(C5CC5)c4)C3)cc2c1=O (single isomer, unassigned) [Example 197B] | < 75 | 0.001 to 0.01 | 
Cc1cc([C@@H]2CN(c3cc4c(=O)n(C)c(C)nc4c(-c4ccc(C(F)(F)F)nc4)n3)C[C@H](C)O2)ccn1 (single isomer, unassigned) [Example 199A] | < 75 | 0.01 to 0.1 | 
Cc1cc([C@H]2CN(c3cc4c(=O)n(C)c(C)nc4c(-c4ccc(C(F)(F)F)nc4)n3)C[C@@H](C)O2)ccn1 (single isomer, unassigned) [Example 199B] | 75 to 110 | < 0.001 | 
Cc1nc2c(-c3ccc(C#N)cc3F)nc(N3C[C@@H](c4cnn(C5CC5)c4)O[C@@H](C)C3)cc2c(=O)n1C (single isomer, unassigned) [Example 200A] | 75 to 110 | < 0.001 | 
Cc1nc2c(-c3ccc(C#N)cc3F)nc(N3C[C@@H](C)O[C@@H](c4cnn(C5CC5)c4)C3)cc2c(=O)n1C (single isomer, unassigned) [Example 200B] | 75 to 110 | 0.01 to 0.1 | 
Cc1nc2c(-c3ccc(F)cc3C#N)nc(N3C[C@@H](c4cnn(C5CC5)c4)O[C@@H](C)C3)cc2c(=O)n1C (single isomer, unassigned) [Example 201A] | < 75 | > 1 | 
Cc1nc2c(-c3ccc(F)cc3C#N)nc(N3C[C@@H](C)O[C@@H](c4cnn(C5CC5)c4)C3)cc2c(=O)n1C (single isomer, unassigned) [Example 201B] | < 75 | > 1 | 
Cc1nc2c(-c3ccc(C(F)(F)F)cc3C#N)nc(N3C[C@@H](c4cnn(C5CC5)c4)O[C@@H](C)C3)cc2c(=O)n1C (single isomer, unassigned) [Example 202A] | < 75 | > 1 | 
Cc1nc2c(-c3ccc(C(F)(F)F)cc3C#N)nc(N3C[C@@H](C)O[C@@H](c4cnn(C5CC5)c4)C3)cc2c(=O)n1C (single isomer, unassigned) [Example 202B] | < 75 | > 1 | 
Cc1nc2c(-c3ccc(Cl)cc3F)nc(N3CCO[C@H](c4cnn(C)c4)C3)nc2c(=O)[nH]1 (single isomer, unassigned) [Example 203A] | < 75 | 0.1 to 1 | 
Cc1nc2c(-c3ccc(Cl)cc3F)nc(N3CCO[C@@H](c4cnn(C)c4)C3)nc2c(=O)[nH]1 (single isomer, unassigned) [Example 203B] | < 75 | 0.1 to 1 | 
Cc1nc2c(-c3ccc(Cl)cc3F)nc(N3CCOC(c4cnn(C)c4)C3)nc2c(=O)n1C (stereo not shown) [Example 1, 8-(4-chloro-2-fluorophenyl)-2,3-dimethyl-6-(2-(1-methyl-1H-pyrazol-4-yl)morpholino)pyrimido[5,4-d]pyrimidin-4 (3H)-one] |  | 0.01 to 0.1 | 75 to 110
Cc1nc2c(-c3ccc(Cl)cc3F)nc(N3CCOC(c4cnn(C5CC5)c4)C3)nc2c(=O)n1C (stereo not shown) [Example 2, 8-(4-chloro-2-fluorophenyl)-6-(2-(1-cyclopropyl-1H-pyrazol-4-yl)morpholino)-2,3-dimethylpyrimido[5,4-d]pyrimidin-4 (3H)-one] | 75 to 110 | 0.001 to 0.01 | 
Cc1cc(C2CN(c3nc(-c4ccc(Cl)cc4F)c4nc(C)n(C)c(=O)c4n3)CCO2)ccn1 (stereo not shown) [Example 3, 8-(4-chloro-2-fluorophenyl)-2,3-dimethyl-6-(2-(2-methylpyridin-4-yl)morpholino)pyrimido[5,4-d]pyrimidin-4 (3H)-one] | 75 to 110 | 0.001 to 0.01 | 
Cc1nc2c(-c3ccc(C(F)(F)F)nc3)nc(N3CCOC(c4cnn(C)c4)C3)nc2c(=O)n1C (stereo not shown) [Example 4, 2,3-dimethyl-6-(2-(1-methyl-1H-pyrazol-4-yl)morpholino)-8-(6-(trifluoromethyl)pyridin-3-yl)pyrimido[5,4-d]pyrimidin-4(3H)-one] | 75 to 110 | 0.1 to 1 | 
Cc1nc2c(-c3ccc(F)cc3F)nc(N3CCOC(c4cnn(C)c4)C3)nc2c(=O)n1C (stereo not shown) [Example 5, 8-(2,4-difluorophenyl)-2,3-dimethyl-6-(2-(1-methyl-1H-pyrazol-4-yl)morpholino)pyrimido[5,4-d]pyrimidin-4(3H)-one] | < 75 | 0.01 to 0.1 | 
Cc1nc2c(-c3ccc(F)c(F)c3F)nc(N3CCOC(c4cnn(C)c4)C3)nc2c(=O)n1C (stereo not shown) [Example 6, 2,3-dimethyl-6-(2-(1-methyl-1H-pyrazol-4-yl)morpholino)-8-(2,3,4-trifluorophenyl)pyrimido[5,4-d]pyrimidin-4(3H)-one] | 75 to 110 | > 1 | 
Cc1nc2c(-c3cc(F)c(F)cc3F)nc(N3CCOC(c4cnn(C)c4)C3)nc2c(=O)n1C (stereo not shown) [Example 7, 2,3-dimethyl-6-(2-(1-methyl-1H-pyrazol-4-yl)morpholino)-8-(2,4,5-trifluorophenyl)pyrimido[5,4-d]pyrimidin-4(3H)-one] | < 75 | 0.1 to 1 | 
Cc1nc2c(-c3cc(F)c(F)c(F)c3)nc(N3CCOC(c4cnn(C)c4)C3)nc2c(=O)n1C (stereo not shown) [Example 8, 2,3-dimethyl-6-(2-(1-methyl-1H-pyrazol-4-yl)morpholino)-8-(3,4,5-trifluorophenyl)pyrimido[5,4-d]pyrimidin-4(3H)-one] | < 75 | 0.1 to 1 | 
